Series [1] deals with PBMCs acutely infected with HIV-1. The experiment in a line: Apoptotic DNA fragmentation (TUNEL) in non-replenished short-term PBMC cultures infected with HIV-1 isolate. Format: cell-based, human. How it is done: (§1) Reagents and cells. Drug-grade deferiprone was kindly provided by Apotex (Toronto, Canada). PBMCs were isolated from the blood of healthy donors, per an IRB-approved protocol, and stimulated overnight with phytohemagglutinin (PHA) and human IL-2. […] Cultures were incubated at 37° C., 5% CO2, and 95% humidity. DNA fragmentation assay. Apoptotic DNA fragmentation was quantified flow-cytometrically, using a TUNEL (terminal deoxynucleotide transferase dUTP nick end-labeling) assay (APO-BRDU™; Phoenix Flow Systems; San Diego, Calif.).

In the next series the test system is uninfected PBMCs. The experiment in a line: Apoptotic DNA fragmentation (TUNEL) in non-replenished short-term uninfected PBMC cultures. Format: cell-based, human. The settings on record: 30 μM, 144 hours. Here is the method:
as §1

The test system of series [2] is clinical isolates of HIV-1. The experiment in a line: HIV-1 p24 and HIV-1 RNA in isolate-infected, long-term replenished primary cell (PBMC) cultures. Format: cell-based. The settings on record: for number of infective virions produced: use without interruption for up to three weeks, unchanged at least three months after discontinuation; for p24 relative to controls: within two weeks, PBMCs stably infected with clinical isolates. How it is done: Reagents and cells. Drug-grade deferiprone was kindly provided by Apotex (Toronto, Canada). PBMCs were isolated from the blood of healthy donors, per an IRB-approved protocol, and stimulated overnight with phytohemagglutinin (PHA) and human IL-2. Stimulated cells were pelleted and resuspended for culture at a final concentration of 0.5×10^6 cells/ml in PHA-free RPMI 1640 medium containing 10% fetal calf serum (v/v), 100 units/ml penicillin G, 100 μg/ml streptomycin, 2 mM […], and 3.5 ng/ml human IL-2 (Medium B). Cultures were incubated at 37° C., 5% CO2, and 95% humidity.
To obtain clinical isolates of HIV-1, donors were consented to provide blood samples per an IRB-approved protocol. For infection, 5×10^6 uninfected stimulated PBMCs were co-cultured with 10×10^6 PBMCs from one of the HIV-infected donors in Medium B. On day 3, half of the supernatant was removed and replenished with an equal volume of fresh Medium B. On day 7, the medium was likewise replenished and 7.5×10^6 stimulated uninfected PBMCs were added. On days 10, 17, and 24, half of the supernatant was replenished. On days 14, 21, and 28, stimulated uninfected PBMCs were added. Cells were harvested when p24 reached 250 pg/ml, cryopreserved in freezing medium (90% fetal calf serum, 10% dimethyl sulfoxide), and stored in liquid nitrogen as infected PBMC stock. Cell-free supernatants were stored at −80° C.
(§2) To establish persistent infection of cultured PBMCs, uninfected cells (5×10^6 cells) and infected PBMC stock (0.5×10^6 cells) were co-incubated in a 25 ml culture flask at a final concentration of 0.22×10^6 cells/ml. Cultures were allowed to establish productive infection, defined by medium p24 at or above 250 pg/ml, and deferiprone was added. Cultures were replenished with Medium B and freshly isolated uninfected PBMCs on alternate days. For replacement of Medium B, half of the supernatant was gently exchanged without disturbing the cells, and the drug concentration was adjusted appropriately. For replacement with freshly isolated, stimulated and uninfected PBMCs, half of the cells and supernatant were removed and replaced with 2.5×10^6 cells in the proper volume of Medium B, with adjustment of the drug concentration. Cell-free supernatants were saved for p24 and viral RNA measurements.
(§3) Detection of p24, viral RNA, and viral DNA. p24 core antigen in the supernatant was quantified by ELISA (Retrotek HIV-1 p24™; ZeptoMetrix Corp.; Buffalo, N.Y.). HIV-1 RNA copy number in the supernatant of PBMC cultures and in plasma of patients enrolled in the exploratory deferiprone trial was determined with a PCR-based and FDA-approved assay (Amplicor HIV-1 Monitor™; Roche Diagnostics Corp.; Indianapolis, Ind.). For clinical samples, the assay was used per the Standard Specimen Processing Procedure (sensitivity limit 400 copies/ml); for cell culture samples, the assay was used in both the Standard Specimen Processing and the UltraSensitive Specimen Processing Procedure (sensitivity limit 50 copies/ml). The Roche Amplicor HIV-1 DNA Test (Roche Diagnostics Corp.; Indianapolis, Ind.) was used for qualitative detection of HIV-1 DNA.

The subject of the next series is HIV-1 DNA. The experiment in a line: Qualitative detection of HIV-1 DNA in infected replenished PBMC cultures. Format: cell-based. The conditions noted are these: 200 μM, 10 days of post-cessation monitoring. Here is the method:
as §2
Detection of p24, viral RNA, and viral DNA. p24 core antigen in the supernatant was quantified by ELISA (Retrotek HIV-1 p24™; ZeptoMetrix Corp.; Buffalo, N.Y.). HIV-1 RNA copy number in the supernatant of PBMC cultures and in plasma of patients enrolled in the exploratory deferiprone trial was determined with a PCR-based and FDA-approved assay (Amplicor HIV-1 Monitor™; Roche Diagnostics Corp.; Indianapolis, Ind.). […]

The test system of another series is infected T-cell lines. The experiment in a line: Suppression of HIV-1 generation and selective induction of apoptosis in infected T-cell lines. Format: cell-based.
Series [3] relates to HIV-1. The experiment in a line: Exploratory pilot trial: plasma HIV-1 RNA in HIV-1-infected treatment-naive persons. It counts as in vivo, human. Here is the method:
as §3
Two oral dose levels of deferiprone were tested, 33 mg/kg (33 mg/kg QD on days 1 and 7, and 33 mg/kg TID on days 2-6 [seven asymptomatic HIV-infected antiretroviral-naive persons]) and 50 mg/kg (50 mg/kg QD on days 1 and 7, and 50 mg/kg TID on days 2-6 [six healthy volunteers and seven asymptomatic HIV-infected antiretroviral-naive persons, four of whom completed the treatment period]).
Each cohort was unblinded only at study completion. […] Secondary parameters included pharmacokinetic variables (e.g. peak serum concentration) in serum, drawn after initial drug ingestion at fixed hours (0, 0.5, 1, 1.5, 2, 3, 4, 6, 9, 12). […] Viral load was measured as described above.
For the cell culture experiments with deferiprone and the exploratory clinical trial, descriptive statistics were generated using Microsoft Excel 2011. In the exploratory trial, outcome analysis was performed to assess the intercohort and intraindividual virological response to deferiprone, using Student's t-test for log10-based analysis of the time-specified differentials (Δ log) between the cohort identified medians (±standard error of the mean [SEM]) generated from the multiple measurements per subject on treatment minus before treatment. (‘response’ in the first stage of the protocol) and off treatment minus before treatment (‘rebound’ in the second stage of the treatment). P<0.05 was used as criterion for statistical significance. […] To assess the in vivo antiretroviral activity of deferiprone in a hypothesis-independent manner, the Δ log of the HIV-1 RNA levels achieved in the first and the second stage of the protocol was analyzed after post-treatment segregation into ‘responders’ and ‘non-responders’ per the discontinuation trial design (DTD).

The subject of a further series is PBMCs. As to the kind of experiment: Cell viability and apoptotic volume decrease by trypan blue image analysis in replenished PBMC cultures. It counts as cell-based, human. The conditions noted are these: 200 μM. How it is done: Quantitation of cell number, viability, diameter, and apoptotic volume decrease. These parameters were measured in PBMC cultures by computerized image analysis of trypan blue exclusion (VI-CELL™; Beckman Coulter; Fullerton, Calif.).

Series [4] deals with HIV-1. The settings on record: zidovudine monotherapy, reference range; cited from earlier work.

Entries after “also recorded” stand apart in the source; their conditions may differ. Bounds are passed on as bounds.

For the compound `Cc1cc(C2CCCCC2)n(O)c(=O)c1` [ciclopirox], the “cells with fragmented DNA (apoptotic), infected treated cultures” value in series [1] (30 μM, 144 hours after inoculation) was found to be 71.8±8.8%. In the series on uninfected PBMCs, the “cells with fragmented DNA (apoptotic), uninfected treated cultures” value was 24.1±3.2%. For the same compound, the “number of infective virions produced” value in series [2] was “undetectable levels”.

On to `Cc1c(O)c(=O)ccn1C` [deferiprone, 3-hydroxy-1,2-dimethylpyridin-4(1H)-one], for which the “HIV-1 DNA in post-treatment cultures” value in the series with HIV-1 DNA is “either negative or at the lower limit of detectability”. The “induced apoptosis in infected versus uninfected PBMCs” value in series [1] (200 μM, non-replenished short-term cultures) is “significantly (P≦0.009) exceeded that in uninfected PBMCs”. Also, the “concentration required for effective suppression of HIV-1 generation and selective induction of apoptosis” value in the series with infected T-cell lines is reported as “at least 150 μM”. Moreover, the “rate of viral RNA rebound after cessation of drug” value in series [2] (100 μM, 35 days of treatment) is “+0.24 log10/ml/day”. For the same compound, the “decrease of viral copy number versus set-point of controls” value in series [2] (100 μM, infected replenished cultures, weeks of treatment) is “decreased by just one log”. Besides, the “p24 relative to controls” value in series [2] (100 μM) and in series [2] (200 μM) was ≤ 10 % of controls in each case. Moreover, the “viral RNA nadir” value in series [2] (200 μM) was 10^3 copies/ml. Moreover, in series [2] (200 μM, 16-day treated cultures), the “reduction of viral RNA copies versus infected untreated controls” value is given as “reduced by three orders of magnitude”. For the same compound, the “re-emergence of productive infection off-treatment” value in series [2] (200 μM, after 90 days off-treatment) is reported as “no re-emergence of productive infection”. Besides, the “decline of viral copy number” value in series [2] (200 μM, continuous treatment) is “falling by three logs”. Besides, the “time to reach nadir of <10^3 copies/ml” value in series [2] (200 μM, depending on isolate - primary cell combination) was 2-4 weeks. For the same compound, in series [2] (200 μM, off drug, replenished cultures), the “HIV-1 RNA rebound after drug discontinuation” value is on record as “viral RNA rebound is absent off drug; also recorded: did not rebound”. Further, the “viral RNA after continued observed decline” value in series [2] (200 μM, post-treatment) is reported as < 10^2 copies/ml. Besides, in series [2] (200 μM, appears to continue up to five days post cessation), the “on-drug rate of viral RNA decline” value is −0.04 log10/ml/day. In addition, in series [2] (after cessation of 100 μM), the “time for post-treatment rebound to reacquire set-point” value was not above 72 h. Moreover, the “p24 expression and viral copy number” value in series [2] (below 100 μM) was “marginally affected”. In addition, in series [2] (month-long monotherapy), the viral breakthrough entry was “did not elicit viral breakthrough”. Further, the “number of infective virions produced” value in series [2] is recorded as “undetectable levels”. Moreover, the “Δ log10 HIV-1 RNA, acute decline coinciding with peak concentrations ≧150 μM” value with HIV-1 [3] (50 mg/kg po TID group) is −0.44±0.1 log10. Also, in the series with HIV-1 [3] (Group A, the 6 of 7 with decline), the “Δ log10 HIV-1 RNA D7 vs. D1, subjects with acute viral load decline” value is given as −0.42±0.05 log10. Besides, the “subjects with acute viral load decline” value with HIV-1 [3] (Group A, ≧150 μM in serum) is listed as 6 of 7. Moreover, the “Δ log10 HIV-1 RNA D7 vs. D1” value is listed as −0.40±0.1 log10 in the series on HIV-1 [3] (Group A, ≧150 μM in serum, 33 or 50 mg/kg po TID, N=7) and “+0.17±0.07 log10” with HIV-1 [3] (Group B, did not achieve ≧150 μM in serum, deferiprone N=4). Also, the “difference responders vs non-responders, Δ log10 D7 vs. D1” value with HIV-1 [3] (end of first stage, 6 responders, 5 non-responders) turned out to be 0.64 log10. In addition, in the series on HIV-1 [3] (end of second stage, 5 responders, 5 non-responders, off drug), the “difference responders vs non-responders, Δ log D53 vs. D1” value was found to be 0.54 log. In addition, the “duration of persistent off-drug suppression as multiple of drug half-life” value in the series on HIV-1 [3] (off-drug, human) was not below 200 times the half-life. The “antiretrovirally effective in vivo threshold (serum concentration)” value in the series on HIV-1 [3] (serum, 11 treated subjects, P=0.0152 Fisher's Exact test) was not below 150 µM. Besides, the “acute responders that did not reacquire viral load baseline” value in the series with HIV-1 [3] (seven weeks post-treatment after one-week pulse) came to 80%. Moreover, in the series on PBMCs, the apoptotic volume decrease entry is “not detectable”. For the same compound, the “viability (trypan blue)” value in the series on PBMCs is given as not below 95%.

As to `Cc1cn([C@H]2C[C@H](N=[N+]=[N-])[C@@H](CO)O2)c(=O)[nH]c1=O` [zidovudine], in the series on HIV-1 [4], the “viral load decline on monotherapy” value is reported as −0.3 log10.

Values taken from US20160199361A1, “Method of Inducing An Anti-Retroviral Immune Response By Counter-Acting Retro-Virus Induced Anti-Apoptosis” (RUTGERS, THE STATE UNIVERSITY OF NEW JERSEY, priority 2013, published 2016).
